# How the values were obtained:
# U87NS xenografts = experiment: In vivo treatment of pre-existing subcutaneous U87NS xenografts; set-up: species or system nude mice
# Experimental: We tested the effect of in vivo TMZ+GSI treatments on pre-existing subcutaneous glioma xenografts. […] When the tumor reached approximately 150 mm^3 (volume=([…])(π)(length/2)(width/2)^2), we began the following treatments: 1) DMSO control: two days of 100 μl DMSO/PBS (1:1) intraperitoneal (i.p.) injections; 2) TMZ-only: injections of TMZ (20 mg/kg) in 100 μl DMSO/PBS on days one and two; 3) LY chow-only: two days of 100 μl DMSO/PBS i.p. injections. […] The mice were fed LY chow from day 3 to 12.
# [1] = system: U87NS, U373NS, GS7-2 and GS8-26; experiment: Neurosphere recovery assay, initial neurospheres, range over all cultures; type: cell-based, human; details: day 7 or 10
# Experimental: (§1) To determine the effects of TMZ plus DAPT neurospheres, cells were plated as previously described (Mihaliak et al., Cancer Letts. 296, 168-177 (2010)). Immediately after plating, cells were treated with DMSO, DAPT-only, LY411,575 (LY)-only TMZ-only, TMZ+DAPT or TMZ+LY. The initial neurospheres were counted on day 7 for the converted cell lines and on day 10 for the slower growing primary lines. Neurosphere recovery was measured on day 14 or 20. The neurospheres were dissociated, re-plated and secondary neurosphere formation was measured on day 21 or 30.
# (§2) Neurosphere cultures were dissociated to single cell suspensions by pH dissociation followed by filtration through 40 μm screens. For the neurosphere assay, 3,000 cells/ml of defined medium were seeded in 6-well plates. Immediately after plating, cells were treated with DMSO (Research Organics, Cleveland, Ohio) carrier control, TMZ-only, DAPT-only, or TMZ+DAPT. Additional DAPT was added on days 2 and 4. Neurospheres consisting of 10 or more cells were counted under a light microscope on day 7 for the converted cell lines. Primary lines have a slightly longer doubling time and were counted on day 10. […] Neurospheres from the recovery period were counted on day 14 or day 20. […] The number of secondary neurospheres formed by converted cell lines and primary cultures were counted on day 21 or day 30, respectively. […]
# GS7-2-pMIG = experiment: Neurosphere recovery assay, empty vector GS7-2-pMIG; type: cell-based, human; details: empty vector control
# Experimental: (§3) Neurosphere cultures were dissociated to single cell suspensions by pH dissociation followed by filtration through 40 μm screens. For the neurosphere assay, 3,000 cells/ml of defined medium were seeded in 6-well plates. Immediately after plating, cells were treated with DMSO (Research Organics, Cleveland, Ohio) carrier control, TMZ-only, DAPT-only, or TMZ+DAPT. Additional DAPT was added on days 2 and 4. Neurospheres consisting of 10 or more cells were counted under a light microscope on day 7 for the converted cell lines. Primary lines have a slightly longer doubling time and were counted on day 10. After counting the neurospheres from the initial treatment, 2 ml of fresh defined medium was added to each well. DAPT was also added once more to the DAPT-only and TMZ+DAPT samples, and the cells were incubated for an additional 7 or 10 days. Neurospheres from the recovery period were counted on day 14 or day 20. To analyze secondary neurosphere formation, cells were collected, pelleted and dissociated to a single cell suspension by the pH method. Cells from each well were re-seeded into 6-well plates with 2 ml of defined medium. The number of secondary neurospheres formed by converted cell lines and primary cultures were counted on day 21 or day 30, respectively. All recovery assays were repeated with a minimum of 6 replicate sets of time points. […]
# U87NS-pMIG = experiment: Neurosphere recovery assay, empty vector U87NS-pMIG; type: cell-based, human; details: empty vector control
# Experimental: as §3
# GS8-26 = experiment: Neurosphere formation / recovery / secondary neurosphere assay, GS8-26; type: cell-based, human
# Experimental: The effect of chemotherapy on neurosphere formation was assayed in glioma neurosphere cultures. Cultures are treated with a single dose of the agent, e.g., TMZ and multiple doses of a GSI, e.g., DAPT to inhibit the Notch pathway. After the Treatment phase, the number of initial spheres (counted about 7 days after TMZ treatment) represents the number of proliferating CSC/progenitors (FIG. 1 for schematic). Recovery (counted 14 days after TMZ treatment) includes enlargement of the initial spheres and new spheres formed when CSC/progenitor cells quiescent as a result of chemotherapy resume cell proliferation. […] The cells used included U87NS, a neurosphere culture converted to neurosphere growth in defined medium from U87MG (an old Swedish line that is grown in conventional serum conditions); GS7-2, GS8-26 and GS6-22 primary neurosphere cultures that were obtained from grade IV GBM patient tumor samples and AS5-15, which was obtained from a grade III anaplastic astrocytoma.
# as §1
# as §2, with “For the neurosphere assay, 3,000 cells/ml of defined medium were seeded in 6-well plates. Immediately after plating, cells were treated with DMSO (Research Organics, Cleveland, Ohio) carrier control, TMZ-only, DAPT-only, or TMZ+DAPT. Additional DAPT was added on days 2 and 4.” left out
structure (smiles),measurement,setting,value
"Cn1nnc2c(C(N)=O)ncn2c1=O [TMZ, temozolomide]",mice / xenografts with tumor progression (tumor volume doubled),"U87NS xenografts; TMZ 20 mg/kg i.p. days 1-2, LY chow day 3 to 12",8/8
same,average time until tumor volume doubled (progression),"U87NS xenografts; after treatment, progressing mice only",23 ± 7 days
same,mice that succumbed to progression,U87NS xenografts; in vivo TMZ treatment,100%
same,decrease of initial neurosphere formation,[1],80-98%
same,recovery: increase in neurospheres,GS7-2-pMIG,2.1 fold
same,recovery: increase in neurospheres,U87NS-pMIG,1.9 fold
same,recovery: increase in the number of neurospheres,"GS8-26; day 20 relative to day 10, DAPT 5 μM",1.6 fold
same,"secondary neurosphere formation, TMZ-only treated culture relative to TMZ+DAPT treated culture","GS8-26; day 30, P<0.001",25 fold
same,average number of cells per neurosphere capable of self-renewal,GS8-26; secondary neurospheres divided by recovery neurospheres,31 cells per neurosphere

# Source: patent US8637493B2, “Methods for treating glioblastoma” (University of Massachusetts, priority 2009, dated 2014)
